Measurements as given in patent US6337417B1, “N-phenyltetrahydrophthalamic acid derivatives, methods of producing same, and herbicides containing same as effective components” (Central Glass Co., Ltd., priority 1994, dated 2002).

What was measured:
Type in all cases: in vivo
Set-up in all cases: key: 5: completely killed; 4: seriously injured; 3: considerably injured; 2: somewhat injured; 1: slightly injured; 0: not injured (normally grown)
paddy rice = test: Experiment 4 flooded soil treatment: injury to paddy rice; conditions: 4 weeks after treatment
Excerpt: (§1) Paddy soil (clay loam) was put into a pot so as to have a surface area of 1/15500 ares. Uniformly mixed seeds of several kinds of weeds, viz., nobie (barnyardgrass, Echinochloa spp.), broad-leaved weeds, hotarui (bulrush, Scirpus juncoides) and tamagayatsuri (small-flowered umbrellaplant, Cyperus difformis), were sown in the surface layer of the soil in each pot, and then paddy rice seedlings at the two- or three-leaved stage were transplanted into each pot to a depth of 2 cm, and water was fed into each pot so as to provide a 3 cm deep water layer on the soil surface. After 3 days, in other words at the initial stage of germination of nobie (barnyardgrass, Echinochloa spp.), a predetermined amount of a selected compound obtained in a manner analogous to Example 11 in the form of diluted aqueous solution was dropped into the water layer in each pot. After that, the pots were kept in a glass chamber to allow the paddy rice and the weeds to grow, and after the lapse of 4 weeks from the treatment with the selected compounds, the herbicidal effects and the degree of injury to the paddy rice were evaluated. The evaluation of the herbicidal effects was similarly conducted as to that of Experiment 1.

[1] = test system: nobie (barnyardgrass, Echinochloa spp.); test: Experiment 4 flooded soil treatment: nobie; conditions: 4 weeks after treatment
Excerpt: as §1

broad-leaved weeds = test: Experiment 4 flooded soil treatment: broad-leaved weeds; conditions: 4 weeks after treatment
Excerpt: as §1

[2] = test system: hotarui (bulrush, Scirpus juncoides); test: Experiment 4 flooded soil treatment: hotarui; conditions: 4 weeks after treatment
Excerpt: as §1

[3] = test system: tamagayatsuri (small-flowered umbrellaplant, Cyperus difformis); test: Experiment 4 flooded soil treatment: tamagayatsuri; conditions: 4 weeks after treatment
Excerpt: as §1

rice = test: Experiment 5 foliage treatment: rice; conditions: foliage spray of wettable powder suspension, evaluated 4 weeks after treatment
Procedure: (§2) Upon seedling stage (two- or three-leaved stage) of rice, cockspur (Panicum crus-galli), garden radish, aobiyu (slender amaranth, Amaranthus viridis) and mehishiba (henry crabgrass, Digitaria cliaris) which were grown on a cultivated soil put in pots of 1/15500 ares, a selected compound obtained in a manner analogous to Example 11, in suspended wettable powder, was sprayed to each plant. After that, the pots were kept in a glass chamber to allow each plant to grow, and after the lapse of 4 weeks from the treatment with the selected compounds the herbicidal effects were evaluated. The evaluation of the herbicidal effects was similarly conducted as that of Experiment 1.

[4] = test system: cockspur (Panicum crus-galli); test: Experiment 5 foliage treatment: cockspur; conditions: foliage spray of wettable powder suspension, evaluated 4 weeks after treatment
Procedure: as §2

garden radish = test: Experiment 5 foliage treatment: garden radish; conditions: foliage spray of wettable powder suspension, evaluated 4 weeks after treatment
Procedure: as §2

[5] = test system: aobiyu (slender amaranth, Amaranthus viridis); test: Experiment 5 foliage treatment: aobiyu; conditions: foliage spray of wettable powder suspension, evaluated 4 weeks after treatment
Procedure: as §2

[6] = test system: mehishiba (henry crabgrass, Digitaria cliaris); test: Experiment 5 foliage treatment: mehishiba; conditions: foliage spray of wettable powder suspension, evaluated 4 weeks after treatment
Procedure: as §2

[7] = test system: ichibi (velvetleaf, Abutilon theophrasti); test: Experiment 6 foliage treatment: ichibi; conditions: foliage spray of wettable powder suspension, evaluated 4 weeks after treatment
Procedure: as §2, with “ichibi (velvetleaf, Abutilon theophrasti), onamomi (heartleaf cocklebur, Xanthium strumarium) (4 L stage), noasagao (blue morningglory, Ipomoea indica)” for “rice, cockspur (Panicum crus-galli), garden radish, aobiyu (slender amaranth, Amaranthus viridis)”, “ooinutade (pale smartweed, Persicaria lapathifolia)” for “mehishiba (henry crabgrass, Digitaria cliaris)”, “1/8850” for “1/15500”

[8] = test system: onamomi (heartleaf cocklebur, Xanthium strumarium); test: Experiment 6 foliage treatment: onamomi; conditions: foliage spray of wettable powder suspension, evaluated 4 weeks after treatment
Procedure: as §2, with “ichibi (velvetleaf, Abutilon theophrasti), onamomi (heartleaf cocklebur, Xanthium strumarium) (4 L stage), noasagao (blue morningglory, Ipomoea indica)” for “rice, cockspur (Panicum crus-galli), garden radish, aobiyu (slender amaranth, Amaranthus viridis)”, “ooinutade (pale smartweed, Persicaria lapathifolia)” for “mehishiba (henry crabgrass, Digitaria cliaris)”, “1/8850” for “1/15500”

[9] = test system: noasagao (blue morningglory, Ipomoea indica); test: Experiment 6 foliage treatment: noasagao; conditions: foliage spray of wettable powder suspension, evaluated 4 weeks after treatment
Procedure: as §2, with “ichibi (velvetleaf, Abutilon theophrasti), onamomi (heartleaf cocklebur, Xanthium strumarium) (4 L stage), noasagao (blue morningglory, Ipomoea indica)” for “rice, cockspur (Panicum crus-galli), garden radish, aobiyu (slender amaranth, Amaranthus viridis)”, “ooinutade (pale smartweed, Persicaria lapathifolia)” for “mehishiba (henry crabgrass, Digitaria cliaris)”, “1/8850” for “1/15500”

[10] = test system: ooinutade (pale smartweed, Persicaria lapathifolia); test: Experiment 6 foliage treatment: ooinutade; conditions: foliage spray of wettable powder suspension, evaluated 4 weeks after treatment
Procedure: as §2, with “ichibi (velvetleaf, Abutilon theophrasti), onamomi (heartleaf cocklebur, Xanthium strumarium) (4 L stage), noasagao (blue morningglory, Ipomoea indica)” for “rice, cockspur (Panicum crus-galli), garden radish, aobiyu (slender amaranth, Amaranthus viridis)”, “ooinutade (pale smartweed, Persicaria lapathifolia)” for “mehishiba (henry crabgrass, Digitaria cliaris)”, “1/8850” for “1/15500”

| Compound | Injury of Paddy (paddy rice; 3.13 g/10a) | Injury of Paddy (paddy rice; 6.25 g/10a) | Herbicidal Effect nobie ([1]; 3.13 g/10a) | Herbicidal Effect nobie ([1]; 6.25 g/10a) | Herbicidal Effect broad-leaved weed (broad-leaved weeds; 3.13 g/10a) | Herbicidal Effect broad-leaved weed (broad-leaved weeds; 6.25 g/10a) | Herbicidal Effect hotarui ([2]; 3.13 g/10a) | Herbicidal Effect hotarui ([2]; 6.25 g/10a) | Herbicidal Effect tamagayatsuri ([3]; 3.13 g/10a) | Herbicidal Effect tamagayatsuri ([3]; 6.25 g/10a) | Herbicidal Effect rice (rice; 40 g/10a) | Herbicidal Effect rice (rice; 80 g/10a) | Herbicidal Effect cockspur ([4]; 40 g/10a) | Herbicidal Effect cockspur ([4]; 80 g/10a) | Herbicidal Effect garden radish (garden radish; 40 g/10a) | Herbicidal Effect garden radish (garden radish; 80 g/10a) | Herbicidal Effect aobiyu ([5]; 40 g/10a) | Herbicidal Effect aobiyu ([5]; 80 g/10a) | Herbicidal Effect mehishiba ([6]; 40 g/10a) | Herbicidal Effect mehishiba ([6]; 80 g/10a) | other results |
| --- | --- | --- | --- | --- | --- | --- | --- | --- | --- | --- | --- | --- | --- | --- | --- | --- | --- | --- | --- | --- | --- |
| COC(=O)C1=C(C(=O)N(C(=O)c2cccnc2)c2cc(C(=O)OC)c(Cl)cc2F)CCCC1 [compound 64] | 0 | 0.5 | 5 | 5 | 5 | 5 | 4 | 4 | 4 | 4 | 1 | 1 | 1 | 1 | 5 | 5 | 5 | 5 | 1 | 2 | Herbicidal Effect ichibi ([7]; 4 g/10a): 5; Herbicidal Effect ichibi ([7]; 8 g/10a): 5; Herbicidal Effect onamomi ([8]; 4 g/10a): 4; Herbicidal Effect onamomi ([8]; 8 g/10a): 5; Herbicidal Effect noasagao ([9]; 4 g/10a): 4; Herbicidal Effect noasagao ([9]; 8 g/10a): 5; Herbicidal Effect ooinutade ([10]; 4 g/10a): 5; Herbicidal Effect ooinutade ([10]; 8 g/10a): 5 |
| N-[4-chloro-2-fluoro-5-(1-methylpropargyloxy)phenyl]-N-nicotinyl-3,4,5,6-tetrahydrophthalamic acid methyl ester [compound 57] | 0 | 0.5 | 5 | 5 | 5 | 5 | 4.5 | 4.5 | 5 | 5 | 1 | 1 | 1 | 3 | 5 | 5 | 5 | 5 | 4 | 4 | Herbicidal Effect ichibi ([7]; 4 g/10a): 5; Herbicidal Effect ichibi ([7]; 8 g/10a): 5; Herbicidal Effect onamomi ([8]; 4 g/10a): 4; Herbicidal Effect onamomi ([8]; 8 g/10a): 4; Herbicidal Effect noasagao ([9]; 4 g/10a): 4; Herbicidal Effect noasagao ([9]; 8 g/10a): 4; Herbicidal Effect ooinutade ([10]; 4 g/10a): 5; Herbicidal Effect ooinutade ([10]; 8 g/10a): 5 |
| C#CC(C)Oc1cc(N(C(=O)C2=C(C(=O)OC)CCCC2)C(=O)c2cncc(C(=O)OC)c2)c(F)cc1Cl (stereo not shown) [compound 67] | 0.5 | 0.5 | 5 | 5 | 5 | 5 | 4 | 5 | 5 | 5 | 1 | 1 | 1 | 1 | 5 | 5 | 5 | 5 | 1 | 1 | Herbicidal Effect ichibi ([7]; 4 g/10a): 5; Herbicidal Effect ichibi ([7]; 8 g/10a): 5; Herbicidal Effect onamomi ([8]; 4 g/10a): 4; Herbicidal Effect onamomi ([8]; 8 g/10a): 5; Herbicidal Effect noasagao ([9]; 4 g/10a): 5; Herbicidal Effect noasagao ([9]; 8 g/10a): 5; Herbicidal Effect ooinutade ([10]; 4 g/10a): 5; Herbicidal Effect ooinutade ([10]; 8 g/10a): 5 |
| C#CC(C)Oc1cc(N(C(=O)C2=C(C(=O)OCCOCC)CCCC2)C(=O)c2cccnc2)c(F)cc1Cl (stereo not shown) [compound 60] | 0.5 | 0.5 | 5 | 5 | 5 | 5 | 4.5 | 4.5 | 5 | 5 | 2 | 4 | 1 | 1 | 5 | 5 | 5 | 5 | 4 | 5 | Herbicidal Effect ichibi ([7]; 4 g/10a): 5; Herbicidal Effect ichibi ([7]; 8 g/10a): 5; Herbicidal Effect onamomi ([8]; 4 g/10a): 5; Herbicidal Effect onamomi ([8]; 8 g/10a): 5; Herbicidal Effect noasagao ([9]; 4 g/10a): 5; Herbicidal Effect noasagao ([9]; 8 g/10a): 5; Herbicidal Effect ooinutade ([10]; 4 g/10a): 5; Herbicidal Effect ooinutade ([10]; 8 g/10a): 5 |
